Source: PubChem BioAssay (NCI)
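Following 48 hours of exposure in 96-well plates, responses at five concentrations were used to interpolate endpoints linearly. GI50 = concentration required for 50% inhibition of growth. The concentration for full growth arrest is given as TGI.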

Experiments:
Test in all cases: NCI anticancer screen, dose series, 48 h
[1] = test system: MDA-MB-468 breast
[2] = test system: 786-0 renal
[3] = test system: A498 renal
[4] = test system: A549 NSCLC
[5] = test system: ACHN renal
[6] = test system: BT-549 breast
[7] = test system: CAKI-1 renal
[8] = test system: CCRF-CEM leukemia
[9] = test system: COLO 205 colon
[10] = test system: DU-145 prostate
[11] = test system: EKVX NSCLC
[12] = test system: HCC-2998 colon
[13] = test system: HCT-116 colon
[14] = test system: HCT-15 colon
[15] = test system: HL-60(TB) leukemia
[16] = test system: HOP-62 NSCLC
[17] = test system: HOP-92 NSCLC
[18] = test system: HS 578T breast
[19] = test system: HT29 colon
[20] = test system: IGROV1 ovarian
[21] = test system: K-562 leukemia
[22] = test system: KM12 colon
[23] = test system: LOX IMVI melanoma
[24] = test system: M14 melanoma
[25] = test system: MALME-3M melanoma
[26] = test system: MCF7 breast
[27] = test system: MDA-MB-231 breast
[28] = test system: MDA-MB-435
[29] = test system: MOLT-4 leukemia
[30] = test system: NCI-H226 lung
[31] = test system: NCI-H23 lung
[32] = test system: NCI-H460 lung
[33] = test system: NCI-H522 lung
[34] = test system: NCI/ADR-RES ovarian
[35] = test system: OVCAR-3 ovarian
[36] = test system: OVCAR-4 ovarian
[37] = test system: OVCAR-5 ovarian
[38] = test system: OVCAR-8 ovarian
[39] = test system: PC-3 prostate
[40] = test system: RPMI-8226 leukemia
[41] = test system: RXF 393 renal
[42] = test system: SF-268 CNS
[43] = test system: SF-295 CNS
[44] = test system: SF-539 CNS
[45] = test system: SK-MEL-2 melanoma
[46] = test system: SK-MEL-28 melanoma
[47] = test system: SK-MEL-5 melanoma
[48] = test system: SK-OV-3 ovarian
[49] = test system: SN12C renal
[50] = test system: SNB-19 CNS
[51] = test system: SNB-75 CNS
[52] = test system: SW-620 colon
[53] = test system: T-47D breast
[54] = test system: TK-10 renal
[55] = test system: U251 CNS
[56] = test system: UACC-257 melanoma
[57] = test system: UACC-62 melanoma
[58] = test system: UO-31 renal

Clc1ccc2[nH]cc(-c3nc(-c4c[nH]c5ncccc45)cs3)c2c1
GI50 [1]: 2.62 µM | TGI [1]: 9.41 µM

CCOC(=O)c1[nH]c(-c2ccc(Cl)cc2)cc1-c1cccnc1
GI50 [1]: 0.493 µM | TGI [1]: 4.33 µM

O=[N+]([O-])c1ccc(N/N=C/c2c(O)ccc3ccccc23)nc1
GI50 [1]: 4.47 µM | TGI [1]: 49.4 µM

N#Cc1cnc2cc(OC[C@@H](O)CO)c(NC(=O)CC3CSSC3)cc2c1Nc1ccc(OCc2cccc(F)c2)c(Cl)c1
GI50 [1]: 0.0698 µM | TGI [1]: 0.155 µM

COc1cc(/C=C\[N+](=O)[O-])ccc1OCc1ccccc1
GI50 [1]: 1.47 µM | TGI [1]: 3.26 µM

Cc1cccc(-c2nc(Nc3ccc(C)c(S(N)(=O)=O)c3)c3ccccc3n2)c1
GI50 [2]: 5.68 µM | TGI [2]: 17.8 µM | GI50 [3]: 8.25 µM | TGI [3]: 25.8 µM | GI50 [4]: 6.51 µM | TGI [4]: 32.8 µM | GI50 [5]: 4.8 µM | TGI [5]: 21 µM | GI50 [6]: 15.8 µM | TGI [6]: 63.5 µM | GI50 [7]: 5.78 µM | TGI [7]: 21.8 µM | GI50 [8]: 4.11 µM | TGI [8]: 25.8 µM | GI50 [9]: 7.07 µM | TGI [9]: 19.8 µM | GI50 [10]: 13.1 µM | TGI [10]: 69.2 µM | GI50 [11]: 6.18 µM | TGI [11]: 24.1 µM | GI50 [12]: 3.1 µM | TGI [12]: 10.8 µM | GI50 [13]: 5.84 µM | TGI [13]: 19.6 µM | GI50 [14]: 3.07 µM | TGI [14]: 10.8 µM | GI50 [15]: 4.67 µM | TGI [15]: 61.5 µM | GI50 [16]: 11 µM | TGI [16]: 26.6 µM | GI50 [17]: 6.46 µM | TGI [17]: 27.2 µM | GI50 [18]: 10.4 µM | TGI [18]: 61.1 µM | GI50 [19]: 4.67 µM | TGI [19]: 18.8 µM | GI50 [20]: 10.3 µM | TGI [20]: 32.7 µM | GI50 [21]: 3.47 µM | TGI [21]: 19 µM | GI50 [22]: 3.32 µM | TGI [22]: > 100 µM | GI50 [23]: 3.31 µM | TGI [23]: 12.5 µM | GI50 [24]: 9.55 µM | TGI [24]: 21.3 µM | GI50 [25]: 13.9 µM | TGI [25]: 32.1 µM | GI50 [26]: 3.16 µM | TGI [26]: 12.9 µM | GI50 [27]: 4.04 µM | TGI [27]: 17.5 µM | GI50 [28]: 10.5 µM | TGI [28]: 67.3 µM | GI50 [1]: 4.07 µM | TGI [1]: 16.5 µM | GI50 [29]: 3.73 µM | TGI [29]: 33.8 µM | GI50 [30]: 11.6 µM | TGI [30]: 35.1 µM | GI50 [31]: 13.3 µM | TGI [31]: 33.5 µM | GI50 [32]: 3.94 µM | TGI [32]: 25 µM | GI50 [33]: 2.72 µM | TGI [33]: 7.93 µM | GI50 [34]: 5.6 µM | TGI [34]: 35.9 µM | GI50 [35]: 9.36 µM | TGI [35]: > 100 µM | GI50 [36]: 8.5 µM | TGI [36]: > 100 µM | GI50 [37]: 12.4 µM | TGI [37]: 27.4 µM | GI50 [38]: 9.17 µM | TGI [38]: 43.4 µM | GI50 [39]: 4.09 µM | TGI [39]: 55.4 µM | GI50 [40]: 4.38 µM | TGI [40]: 35 µM | GI50 [41]: 3.3 µM | TGI [41]: 11 µM | GI50 [42]: 11.8 µM | TGI [42]: > 100 µM | GI50 [43]: 2.61 µM | TGI [43]: 8.28 µM | GI50 [44]: 7.78 µM | TGI [44]: 27 µM | GI50 [45]: 11.4 µM | TGI [45]: 32.1 µM | GI50 [46]: 11.4 µM | TGI [46]: 28.8 µM | GI50 [47]: 11 µM | TGI [47]: 24.7 µM | GI50 [48]: 17.6 µM | TGI [48]: 47.8 µM | GI50 [49]: 11.5 µM | TGI [49]: 28.2 µM | GI50 [50]: 10.5 µM | TGI [50]: 53 µM | GI50 [51]: 13.1 µM | TGI [51]: 52 µM | GI50 [52]: 6.44 µM | TGI [52]: 24 µM | GI50 [53]: 3.61 µM | TGI [53]: 16.7 µM | GI50 [54]: 15.3 µM | TGI [54]: 41.9 µM | GI50 [55]: 8.08 µM | TGI [55]: 34.2 µM | GI50 [56]: 18.3 µM | TGI [56]: 51.4 µM | GI50 [57]: 13.6 µM | TGI [57]: 30.2 µM | GI50 [58]: 5.57 µM | TGI [58]: 27.1 µM

COc1ccc(/C=C/c2nc(NCCCN(C)C)c3ccccc3n2)cc1
GI50 [1]: 1.31 µM | TGI [1]: 2.64 µM

COc1ccc(-c2cc(/C=C3\C(=O)Nc4ccc(Cl)cc43)[nH]n2)cc1
GI50 [1]: 3.6 µM | TGI [1]: 13.5 µM

O=C(c1ccc2ncc(-c3nc(NC4CC4)ncc3F)n2c1)N1CCOCC1
GI50 [1]: 1.79 µM | TGI [1]: 4.34 µM

NNc1cccc(/C=C/c2ccccc2)cc1=O
GI50 [1]: 8.46 µM | TGI [1]: 90.7 µM

OCC1OC(n2ccc3c(NO)ncnc32)C(O)C1O (centres undefined)
GI50 [1]: 0.122 µM | TGI [1]: 0.777 µM

CC/C=C\C[C@H](O)C/C=C1/C(=O)C=C[C@@H]1C/C=C\CCCC(=O)N(C)C
GI50 [1]: 1.43 µM | TGI [1]: 3.38 µM

COCCOC(=O)NC(=O)Nc1ccc(/C(=N/O)c2ccc(Cl)cc2)cc1
GI50 [1]: 0.0813 µM | TGI [1]: 0.616 µM

N=C(N=C(N)N)N1CCN(c2ccncc2)CC1
GI50 [1]: > 1000 µM | TGI [1]: > 1000 µM

Cc1nc2sc(C(=O)Nc3cccc4ccccc34)c(N)c2cc1C(=O)c1ccccc1
GI50 [1]: 1.66 µM | TGI [1]: > 50 µM

CCOC(=O)C(=Cc1ccccc1[N+](=O)[O-])C(=O)OCC
GI50 [1]: 1.53 µM | TGI [1]: 4.68 µM

CCCCCCCCCCN(CCCCCCCCCC)CC(=O)c1ccc2cc(Br)c3ccccc3c2c1
GI50 [1]: 1.7 µM | TGI [1]: 3.14 µM

COC1CC2C=C(C)/C=C/C=C/C(=O)NC(c3ccccc3)C/C=C/CCC(O)CC(=O)C2=C1O (centres undefined)
GI50 [1]: 0.283 µM | TGI [1]: 1.24 µM

Cc1cc(C)c(C[N+](C)(C)C)c(C)c1C
GI50 [1]: 0.495 µM | TGI [1]: 9.2 µM

COc1ccc2c(Nc3ccc(NS(C)(=O)=O)cc3)c3ccccc3nc2c1
GI50 [1]: 0.414 µM | TGI [1]: 1.74 µM

NC1CCN(c2nc(Nc3cccc(C(F)(F)F)c3)c3c(=O)[nH]ccc3n2)CC1
GI50 [1]: 1.49 µM | TGI [1]: 2.98 µM

CC(=O)[C@@H]1CCC=C2CC[C@]3(C)[C@@H](CC[C@@H]4[C@@]5(C)CCCNC(C)(C)[C@@H]5CC[C@]43C)[C@H]21
GI50 [1]: 1.78 µM | TGI [1]: 3.43 µM

C=C1C(=O)O[C@H]2[C@H]1CC/C(COC(=O)NCc1ccc(Cn3c(=O)sn(CCCCl)c3=O)cc1)=C\CC[C@@]1(C)O[C@@H]21
GI50 [1]: 1.53 µM | TGI [1]: 4.33 µM

Cc1cc(CNC(=O)OCc2ccccc2)c(C)c2c1Oc1ccccc1O2
GI50 [1]: 95.6 µM | TGI [1]: > 100 µM

CC1=C[C@H]2c3c(c(O)c(O)c4oc5ccccc5c(=O)c34)[C@H](c3cc(O)c(O)c4oc5ccccc5c(=O)c34)[C@H]2C(C)(C)C1
GI50 [1]: 2.02 µM | TGI [1]: 6.04 µM

COC(=O)c1c2c(c(C)[n+]([O-])c1C)C(=O)C=C(NCc1ccc(F)c(F)c1)C2=O
GI50 [1]: 0.242 µM | TGI [1]: 0.705 µM

O=C(Nc1ccc(F)cc1)c1c(NC(=O)C(F)(F)F)sc2c1CCCCC2
GI50 [1]: 1.04 µM | TGI [1]: 4.85 µM

CC(C)c1ccc(C(=O)Nc2sc3c(c2C#N)CCC(=O)C3)cc1
GI50 [1]: 0.389 µM | TGI [1]: 2.4 µM

O=c1nc(Nc2cccc(Cl)c2)oc2cc(Cl)oc(=O)c12
GI50 [1]: 2.44 µM | TGI [1]: 6.75 µM

ClC(Cl)c1nc(-c2cccnc2)n2nc(-c3ccccc3)cc2n1
GI50 [1]: 0.247 µM | TGI [1]: 0.793 µM

NC(=O)c1cc(Br)cc(C2CCCCC2)c1O
GI50 [1]: 13.8 µM | TGI [1]: 29.2 µM

Cn1c(=O)c(Oc2ccccc2F)cc2cnc(NC3CCOCC3)nc21
GI50 [1]: > 25 µM | TGI [1]: > 25 µM

CN(C)CCCN1c2nc3ccccc3cc2Sc2cc3ccccc3nc21
GI50 [1]: 1.65 µM | TGI [1]: 4.44 µM

CCN1C(=S)N(CC)C2C1NC(=S)N2/N=C/C=C/c1ccccc1 (centres undefined)
GI50 [1]: 0.458 µM | TGI [1]: 4.19 µM

Nc1nnc2cc(Cl)ccc2n1
GI50 [1]: > 100 µM | TGI [1]: > 100 µM
